Like-named read-outs stand apart in the source and are kept apart here. Marks after values point to notes of the source that are not given here.
Columns and labels:
[1] = Description: (§1) The final organic content in liver microsomal incubations was 0.5%.
(§2) Liver microsomal protein (25 uL for 0.5 mg/mL; 15 uL for 0.3 mg/mL), NADPH (100 uL, 2 mM final concentration) and phosphate buffer (870 uL for 0.5 mg/mL; 880 uL for 0.3 mg/mL) were incubated in a microfuge tube in an orbital shaker incubator for 10 min maintained at 37° C. Reactions were initiated by spiking 5 uL of 2 mM and 0.2 mM 5-bromo-2,6-di(1H-pyrazol-1-yl)pyrimindin-4-amine(10 uM final concentrations for 0.5 mg/mL protein; 1 uM final concentration for 0.3 mg/mL protein; 0.5% final DMSO concentration) and samples incubated at 37° C. Aliquots (200 uL) were withdrawn from the reaction tube at 0, 60 and 120 minutes and the reaction was quenched by addition of 100 uL acetonitrile. Reactions were performed in duplicates. The quenched samples were centrifuged at 14000 rpm (approximately 21000 g) for 10 minutes(Eppendorf Centrifuge 5810 R) and supernatant was analyzed by LCMS/MS.
(§3) Control incubations (no NADPH added) and blank incubations (no test item added) were performed in singlet for each species. These samples were withdrawn at 0 and 120 min and quenched using acetonitrile. The supernatant was analyzed for any non microsomal degradation and matrix interference. […] Reaction and control experiments were performed in singlet.

[2] = male, Sprague Dawley, rat, microsomes
Description: as §1
as §2, with “5-bromo-2,6-di(1H-pyrazol-1-yl)pyrimindin-4-amine([…]; […];” for “5-bromo-2,6-di(1H-pyrazol-1-yl)pyrimindin-4-amine(10 uM final concentrations for 0.5 mg/mL protein; 1 uM final concentration for 0.3 mg/mL protein;”
as §3

[3] = format: in vitro ADME; details: for Percentage area ratio with respect to parent (10 uM): 0 min
Description: • ACN: acetonitrile • CC: calibration curve • IS: internal standard • DMSO: dimethylsulfoxide • MRM: multiple reaction monitoring • […]: nicotinamide adenine dinucleotide phosphate (reduced) • Rpm: revolution per minute Liver Microsomes • Rat liver microsomes (male, pooled, Sprague Dawley) • Source: XenoTech, LLC (Kansas, USA) • Protein content: 20 mg/mL • Catalogue number: R I 000, Lot number: 0710623 • Dog liver microsomes (male, pooled, Beagle) • Source: XenoTech, LLC (Kansas, USA) • Protein content: 20 mg|mL • Catalogue number: D I 000, Lot number: 0810143 • Human liver microsomes (mixed gender, pooled) • Source: XenoTech, LLC (Kansas, USA) • Protein content: 20 mg|mL • Catalogue number: H061 0, Lot number: 101042 Stock Solutions and Reagents Test Item
(§4) Reactions were performed in duplicates.
(§5) Reaction and control experiments were performed in singlet.
Samples were processed using protein precipitation method and then analyzed by employing linear gradient with a run time of 28 min in HPLC coupled with tandem mass spectrometry (API 4000 mass spectrometer). Each sample was injected and scanned separately for Q1 (MH+/MH−) and MS/MS.
The different possible metabolite peaks were identified in Q1 scan after assessing for matrix interference using test item free blank samples, and were confirmed from the fragmentation pattern (MSIMS scan).
An alternate analytical method was also developed to increase the retention times and to assess other metabolites apart from the identified M-1 metabolite. Aqueous solutions of 1-(6-amino-5-bromo-2-(1H-pyrazol-1-yl)pyrimidin-4-yl)-1H-pyrazol-4-ol and 1-(4-amino-5-bromo-6-(1H-pyrazol-1-yl)pyrimidin-2-yl)-1H-pyrazol-4-ol (1 uM) were co-chromatographed with the in vitro incubated samples employing modified analytical method to confirm the identity.

[4] = Liver microsomal incubations compared across tested species; format: in vitro ADME, rat, dog, human
Description: as §4, §5

[5] = molecular target: T1, human adenosine A2A receptor (Homo sapiens, UniProt P29274); test: In vitro hA2A radioligand binding assay; details: [3H]-ZM241385 competition, HEK-293 membranes; Ki from IC50 by Cheng-Prusoff
T1 construct: purchased Perkin Elmer RBHA2AM400UA; host or cells: HEK-293 cells stably expressing the receptor (membrane preparation)
T1 sequence (P29274 whole entry): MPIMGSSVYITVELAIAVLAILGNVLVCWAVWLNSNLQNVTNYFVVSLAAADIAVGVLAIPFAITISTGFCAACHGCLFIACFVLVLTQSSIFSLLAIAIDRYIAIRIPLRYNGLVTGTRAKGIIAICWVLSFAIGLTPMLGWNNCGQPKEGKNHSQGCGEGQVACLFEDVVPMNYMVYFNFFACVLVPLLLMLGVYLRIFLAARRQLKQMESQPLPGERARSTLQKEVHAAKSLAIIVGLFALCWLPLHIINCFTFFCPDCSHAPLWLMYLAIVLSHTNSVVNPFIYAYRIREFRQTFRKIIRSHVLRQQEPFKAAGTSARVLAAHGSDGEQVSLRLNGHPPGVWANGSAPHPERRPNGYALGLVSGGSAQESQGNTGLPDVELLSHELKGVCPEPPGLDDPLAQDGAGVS

[6] = Mass balance determination in human liver microsomes (MRM analysis); format: in vitro ADME
Description: as §4
An aliquot (25 uL) of these samples were further diluted with 100 uL of internal standard (Haloperidol, 1 ug|mL in acetonitrile).
The incubation samples were also prepared similar to that of the calibration standards by adding 25 uL of the quenched sample with 100 uL of internal standard.

[7] = human liver microsomes, parent 10 uM, 0 min, Set-1
[8] = human liver microsomes, parent 10 uM, 0 min, Set-2
[9] = human liver microsomes, parent 10 uM, 30 min, Set-1
[10] = human liver microsomes, parent 10 uM, 30 min, Set-2
[11] = human liver microsomes, parent 10 uM, 60 min, Set-1
[12] = human liver microsomes, parent 10 uM, 60 min, Set-2

O=C(O)Cc1ccccc1Nc1c(Cl)cccc1Cl [Diclofenac]
% remaining ([1]; both, human, microsomes, 0 h, 0.5 uM): 100%
% remaining ([1]; both, human, microsomes, 1 h, 0.5 uM): 100%
% remaining ([2]; 0 h, 0.5 uM): 100%
% remaining ([2]; 1 h, 0.5 uM): 12%

Nc1nc(-n2cc(O)cn2)nc(-n2cccn2)c1Br [Example 1, 1-(4-amino-5-bromo-6-(1H-pyrazol-1-yl)pyrimidin-2-yl)-1H-pyrazol-4-ol]
Percentage area ratio with respect to parent (10 uM) ([3]; male, Beagle, dog): 0.01%
percentage of metabolite with respect to parent ([4]; rat, dog and human liver microsomes, assumes equal ionization efficiency): uniformly low
Ki [5]: 50 nM
percentage of M-I metabolite in human liver microsomes ([6]; after 60 minutes of incubation with parent, % of the parent): 15-20%
% M-I detected [6, 7]: 0%
M-I Concentration [6, 7]: 0 µM
% M-I detected [6, 8]: 0%
M-I Concentration [6, 8]: 0 µM
% M-I detected [6, 9]: 10.95%
M-I Concentration [6, 9]: 1.29 µM
% M-I detected [6, 10]: 7.97%
M-I Concentration [6, 10]: 0.92 µM
% M-I detected [6, 11]: 18.93%
M-I Concentration [6, 11]: 2.23 µM
% M-I detected [6, 12]: 15.08%
M-I Concentration [6, 12]: 1.74 µM

Nc1nc(-n2cccn2)nc(-n2cccn2)c1Br [Parent, 5-bromo-2,6-di(1H-pyrazol-1-yl)pyrimindin-4-amine]
% metabolism of parent at 120 min ([1]; both, human, 1 uM): 76%
% remaining ([1]; both, human, microsomes, 0 h, 1 uM): 100%
% metabolism of parent at 120 min ([1]; human, 1 uM): 78%
% metabolism of parent at 120 min ([1]; male, Beagle, dog, 1 uM): 83%
% remaining ([1]; male, Beagle, dog, microsomes, 0 h, 1 uM): 100%
Concentration of Analyte metabolized ([1]; male, Beagle, dog, microsomes, 2 h, 1 uM): 830 nM
% remaining ([2]; 0 h, 1 uM): 100%
Percentage area ratio with respect to parent (10 uM) ([3]; both, human): 100%
Percentage area ratio with respect to parent (10 uM) ([3]; male, Beagle, dog): 100%
Percentage area ratio with respect to parent (10 uM) ([3]; male, Sprague Dawley, rat): 100%
% metabolism of parent at 120 min ([3]; male, Sprague Dawley, rat, 120 min, 10 uM): 0%
Concentration of Analyte metabolized ([3]; male, Sprague Dawley, rat, microsomes, 2 h, 10 uM): 0 nM
relative metabolism across tested species ([4]; 1 uM, 0.3 mg/mL microsomal protein, DLM, HLM, RLM = dog, human, rat liver microsomes): DLM>HLM>RLM
stability in control incubations (no NADPH added) ([4]; liver microsomes, indicating no non-CYP mediated metabolism): stable up to 120 min
% parent Remaining [6, 7]: 100%
Parent Concentration [6, 7]: 11.78^a uM
% parent Remaining [6, 9]: 96.26%
Mass balance [6, 9]: 107.22%
Parent Concentration [6, 9]: 11.34^a uM
% parent Remaining [6, 11]: 88%
Mass balance [6, 11]: 107.81%
Parent Concentration [6, 11]: 10.47^a uM
Parent Concentration ([6]; human, 0 min, 10 uM): 11.54^a uM
Mass balance ([6]; human, 30 min, 10 uM): 95.41%
Parent Concentration ([6]; human, 30 min, 10 uM): 10.09^a uM
Mass balance ([6]; human, 60 min, 10 uM): 94.63%
Parent Concentration ([6]; human, 60 min, 10 uM): 9.18 µM
% parent Remaining ([6]; human, microsomes, 0 h, 10 uM): 100%
% parent Remaining ([6]; human, microsomes, 0.5 h, 10 uM): 87.44%
% parent Remaining ([6]; human, microsomes, 1 h, 10 uM): 79.55%
mass balance for the metabolism in human liver microsomes ([6]; text summary of Table 7): 95 to 107%

Source: patent US11078191B2, “1-(4-amino-5-bromo-6-(1H-pyrazol-1-yl)pyrimidin-2-yl)-1H-pyrazol-4-ol and use thereof in the treatment of cancer” (Novartis AG, priority 2017, dated 2021)
